# Test results published in patent US8350062B2, “Synthesis and anticancer activity of new actin-targeting small-molecule agents” (priority 2009, dated 2013).
# Tests used:
# Assay in all cases: NCI 60 cell line single dose screen
# Format in all cases: cell-based, human
# [1] = tested on: HOP-62; settings: HOP-62 (Non-Small Cell Lung Cancer), 10 micromolar, 48 h
# Source text: (§1) Analog 10 was screened utilizing 60 different human tumor cell lines, representing leukemia, melanoma and cancers of the lung, colon, brain, ovary, breast, prostate, and kidney in order to show selective growth inhibition or cell killing of particular tumor cell lines. This screen is unique in that the complexity of a 60 cell line dose response produced by a given compound results in a biological response pattern which can be utilized in pattern recognition algorithms (COMPARE program. See: http://dtp.nci.nih.gov/docs/compare/compare.html). Using these algorithms, it is possible to assign a putative mechanism of action to a test compound, or to determine that the response pattern is unique and not similar to that of any of the standard prototype compounds included in the NCI database. In addition, following characterization of various cellular molecular targets in the 60 cell lines, it may be possible to select compounds most likely to interact with a specific molecular target.
# (§2) The screening is a two-stage process, beginning with the evaluation of the compound against the 60 cell lines at a single dose of 10 uM.
# (§3) The human tumor cell lines of the cancer screening panel are grown in RPMI 1640 medium containing 5% fetal bovine serum and 2 mM L-glutamine. For a typical screening experiment, cells are inoculated into 96 well microtiter plates in 100 μL at plating densities ranging from 5,000 to 40,000 cells/well depending on the doubling time of individual cell lines. After cell inoculation, the microtiter plates are incubated at 37° C., 5% CO2, 95% air and 100% relative humidity for 24 h prior to addition of experimental drug.
# (§4) After 24 h, two plates of each cell line are fixed in situ with TCA, to represent a measurement of the cell population for each cell line at the time of drug addition (Tz). Experimental drugs are solubilized in dimethyl sulfoxide at 400-fold the desired final maximum test concentration and stored frozen prior to use. At the time of drug addition, an aliquot of frozen concentrate is thawed and diluted to twice the desired final maximum test concentration with complete medium containing 50 μg/ml gentamicin.
# (§5) Following drug addition, the plates are incubated for an additional 48 h at 37° C., 5% CO2, 95% air, and 100% relative humidity. For adherent cells, the assay is terminated by the addition of cold TCA. Cells are fixed in situ by the gentle addition of […] of cold 50% (w/v) TCA (final concentration, 10% TCA) and incubated for 60 minutes at 4° C. The supernatant is discarded, and the plates are washed five times with tap water and air dried. Sulforhodamine B (SRB) solution (100 μl) at 0.4% (w/v) in 1% acetic acid is added to each well, and plates are incubated for 10 minutes at room temperature. After staining, unbound dye is removed by washing five times with 1% acetic acid and the plates are air dried. Bound stain is subsequently solubilized with 10 mM trizma base, and the absorbance is read on an automated plate reader at a wavelength of 515 nm. For suspension cells, the methodology is the same except that the assay is terminated by fixing settled cells at the bottom of the wells by gently adding 50 μl of 80% TCA (final concentration, 16% TCA). Using the absorbance measurements [time zero, (Tz), control growth, (C), and test growth in the presence of drug (Ti)], the percentage growth is calculated.
# [2] = tested on: SK-MEL-28; settings: SK-MEL-28 (Melanoma), 10 micromolar, 48 h
# Source text: as §1, §2, §3, §4, §5
# [3] = tested on: OVCAR-3; settings: OVCAR-3 (Ovarian Cancer), 10 micromolar, 48 h
# Source text: as §1, §2, §3, §4, §5
# [4] = tested on: SF-295; settings: SF-295 (CNS Cancer), 10 micromolar, 48 h
# Source text: as §1, §2, §3, §4, §5
# [5] = tested on: MDA-MB-468; settings: MDA-MB-468 (Breast Cancer), 10 micromolar, 48 h
# Source text: as §1, §2, §3, §4, §5
# [6] = tested on: MDA-MB-231/ATCC; settings: MDA-MB-231/ATCC (Breast Cancer), 10 micromolar, 48 h
# Source text: as §1, §2, §3, §4, §5
# [7] = tested on: TK-10; settings: TK-10 (Renal Cancer), 10 micromolar, 48 h
# Source text: as §1, §2, §3, §4, §5
# [8] = tested on: NCI-H460; settings: NCI-H460 (Non-Small Cell Lung Cancer), 10 micromolar, 48 h
# Source text: as §1, §2, §3, §4, §5
# [9] = tested on: UO-31; settings: UO-31 (Renal Cancer), 10 micromolar, 48 h
# Source text: as §1, §2, §3, §4, §5
# [10] = tested on: HS 578T; settings: HS 578T (Breast Cancer), 10 micromolar, 48 h
# Source text: as §1, §2, §3, §4, §5
# [11] = tested on: SR; settings: SR (Leukemia), 10 micromolar, 48 h
# Source text: as §1, §2, §3, §4, §5
# [12] = tested on: KM12; settings: KM12 (Colon Cancer), 10 micromolar, 48 h
# Source text: as §1, §2, §3, §4, §5
# [13] = tested on: HCC-2998; settings: HCC-2998 (Colon Cancer), 10 micromolar, 48 h
# Source text: as §1, §2, §3, §4, §5
# [14] = tested on: SW-620; settings: SW-620 (Colon Cancer), 10 micromolar, 48 h
# Source text: as §1, §2, §3, §4, §5
# [15] = tested on: A549/ATCC; settings: A549/ATCC (Non-Small Cell Lung Cancer), 10 micromolar, 48 h
# Source text: as §1, §2, §3, §4, §5
# [16] = tested on: NCI/ADR-RES; settings: NCI/ADR-RES (Ovarian Cancer), 10 micromolar, 48 h
# Source text: as §1, §2, §3, §4, §5
# [17] = tested on: 786-0; settings: 786-0 (Renal Cancer), 10 micromolar, 48 h
# Source text: as §1, §2, §3, §4, §5
# [18] = tested on: NCI-H226; settings: NCI-H226 (Non-Small Cell Lung Cancer), 10 micromolar, 48 h
# Source text: as §1, §2, §3, §4, §5
# [19] = tested on: NCI-H322M; settings: NCI-H322M (Non-Small Cell Lung Cancer), 10 micromolar, 48 h
# Source text: as §1, §2, §3, §4, §5
# [20] = tested on: UACC-257; settings: UACC-257 (Melanoma), 10 micromolar, 48 h
# Source text: as §1, §2, §3, §4, §5
# [21] = tested on: OVCAR-4; settings: OVCAR-4 (Ovarian Cancer), 10 micromolar, 48 h
# Source text: as §1, §2, §3, §4, §5
structure (smiles),measurement,setting,value
COCCC(=O)NC[C@H](O)[C@H](C)C(=O)NCCC[C@H]1O[C@@]2(CCC[C@@H](CC[C@H](C)/C=C(\C)[C@H](C)O)O2)CCC1C (stereo partly drawn) [Analog 10],Growth Percent,[1],40.92%
same,Growth Percent,[2],71.16%
same,Growth Percent,[3],83.59%
same,Growth Percent,[4],13.26%
same,Growth Percent,[5],29.03%
same,Growth Percent,[6],43.18%
same,Growth Percent,[7],30.01%
same,Growth Percent,[8],48.25%
same,Growth Percent,[9],22.67%
same,Growth Percent,[10],46.51%
same,Growth Percent,[11],40.40%
same,Growth Percent,[12],73.09%
same,Growth Percent,[13],66.34%
same,Growth Percent,[14],45.90%
same,Growth Percent,[15],44.50%
same,Growth Percent,[16],88.16%
same,Growth Percent,[17],50.94%
same,Growth Percent,[18],58.32%
same,Growth Percent,[19],113.58%
same,Growth Percent,[20],72.55%
same,Growth Percent,[21],45.16%
